Experimental findings from patent US11104690B2, “Indazole derivatives useful as inhibitors of diacylglyceride O-acyltransferase 2” (Merck Sharp & Dohme Corp., priority 2016, dated 2021) are described below.

The target in this test is Human DGAT2 (Homo sapiens (Human), UniProt Q96PD7). In words: DGAT2 Enzymatic Activity Assay (triolein formation, LC/MS/MS). Type of test: biochemical. The conditions noted are these: hDGAT2 Sf-9 membrane prep; 25 μM diolein, 10 μM oleoyl-CoA; room temperature. In outline: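 Membranes from Sf-9 cells infected with untagged hDGAT2 baculovirus, 10 ng/μL, at room temperature in 100 mM Tris.Cl pH 7.0, 20 mM MgCl2, 5% ethanol with 25 μM diolein and 10 μM oleoyl-CoA. Triolein quantified by LC/MS/MS against spiked internal standard; IC50 from 4-parameter sigmoidal fit.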
Chain of Human DGAT2 (Q96PD7 whole entry): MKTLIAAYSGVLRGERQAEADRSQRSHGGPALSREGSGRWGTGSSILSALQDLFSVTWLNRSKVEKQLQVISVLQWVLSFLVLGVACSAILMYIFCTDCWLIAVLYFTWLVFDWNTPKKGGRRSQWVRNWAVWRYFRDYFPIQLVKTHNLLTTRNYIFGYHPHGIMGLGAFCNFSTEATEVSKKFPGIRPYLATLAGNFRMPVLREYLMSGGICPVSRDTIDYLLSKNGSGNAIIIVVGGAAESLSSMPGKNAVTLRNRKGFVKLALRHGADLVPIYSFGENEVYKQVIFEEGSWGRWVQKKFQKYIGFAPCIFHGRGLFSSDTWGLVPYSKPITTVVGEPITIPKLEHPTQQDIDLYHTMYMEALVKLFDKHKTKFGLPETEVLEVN

The IC50 is the concentration that inhibits the measured activity by half. Read a high IC50 as weaker potency in that assay.

In turn, `O=C(N[C@@H]1CCC[C@H]1O)c1ccc2c(-c3ccccc3Cl)nn(-c3ccc(F)cc3)c2c1` [Example 94, 3-(2-chlorophenyl)-1-(4-fluorophenyl)-N-[(1R,2R)-2-hydroxycyclopentyl]-1H-indazole-6-carboxamide] returned an IC50 of 772 nM. In other words, the sub-micromolar range.
`CC(C)[C@H](NC(=O)c1ccc2c(-c3ccccc3Cl)nn(-c3ccc(F)cc3)c2c1)C(N)=O` [Example 95, N-[(1S)-1-carbamoyl-2-methylpropyl]-3-(2-chlorophenyl)-1-(4-fluorophenyl)-1H-indazole-6-carboxamide] returned an IC50 of 606 nM.
Compound `O=C(N[C@H]1CCC[C@H]1O)c1ccc2c(-c3ccccc3Cl)nn(-c3ccc(F)cc3)c2c1` [Example 96, 3-(2-chlorophenyl)-1-(4-fluorophenyl)-N-[(1S,2R)-2-hydroxycyclopentyl]-1H-indazole-6-carboxamide] yielded an IC50 of 43 nM.
Take `O=C(N[C@H]1CCC[C@@H]1O)c1ccc2c(-c3ccccc3Cl)nn(-c3ccc(F)cc3)c2c1` [Example 97, 3-(2-chlorophenyl)-1-(4-fluorophenyl)-N-[(1S,2S)-2-hydroxycyclopentyl]-1H-indazole-6-carboxamide]: the midpoint of inhibition, the IC50, lay at 155 nM.
Compound `CC(C)(C)[C@@H](CO)NC(=O)c1ccc2c(-c3ccccc3Cl)nn(-c3ccc(F)cc3)c2c1` [Example 99, 3-(2-chlorophenyl)-1-(4-fluorophenyl)-N-[(1S)-1-(hydroxymethyl)-2,2-dimethylpropyl]-1H-indazole-6-carboxamide] showed an IC50 of 6.1 nM.
`CC(C)(C)OC(=O)N1CC[C@H](NC(=O)c2ccc3c(-c4ccccc4Cl)nn(-c4ccc(F)cc4)c3c2)C1` [Example 100, tert-butyl (3S)-3-({[3-(2-chlorophenyl)-1-(4-fluorophenyl)-1H-indazol-6-yl]carbonyl}amino)pyrrolidine-1-carboxylate] had an IC50 of 12 nM.
Regarding `CC(C)(C)OC(=O)N1CC[C@@H](NC(=O)c2ccc3c(-c4ccccc4Cl)nn(-c4ccc(F)cc4)c3c2)C1` [Example 101, tert-butyl (3R)-3-({[3-(2-chlorophenyl)-1-(4-fluorophenyl)-1H-indazol-6-yl]carbonyl}amino)pyrrolidine-1-carboxylate], the IC50 came out at 136 nM.
On to `CC[C@H](C)[C@@H](CO)NC(=O)c1ccc2c(-c3ccccc3Cl)nn(-c3ccc(F)cc3)c2c1` [Example 103, 3-(2-chlorophenyl)-1-(4-fluorophenyl)-N-[(1S,2S)-1-(hydroxymethyl)-2-methylbutyl]-1H-indazole-6-carboxamide], for which the IC50 came out at 31 nM.
In turn, `O=C1CC(NC(=O)c2ccc3c(-c4ccccc4Cl)nn(-c4ccc(F)cc4)c3c2)C1` [Example 104, 3-(2-chlorophenyl)-1-(4-fluorophenyl)-N-(3-oxocyclobutyl)-1H-indazole-6-carboxamide] returned an IC50 of 180 nM.
The compound `N#CC1(NC(=O)c2ccc3c(-c4ccccc4Cl)nn(-c4ccc(F)cc4)c3c2)CC1` [Example 105, 3-(2-chlorophenyl)-N-(1-cyanocyclopropyl)-1-(4-fluorophenyl)-1H-indazole-6-carboxamide] showed an IC50 of 139 nM.
`C[C@@H](NC(=O)c1ccc2c(-c3ccccc3Cl)nn(-c3ccc(F)cc3)c2c1)[C@@H](O)c1ccccc1` [Example 106, 3-(2-chlorophenyl)-1-(4-fluorophenyl)-N-[(1R,2S)-2-hydroxy-1-methyl-2-phenylethyl]-1H-indazole-6-carboxamide] showed a 50% inhibitory concentration (IC50) of 832 nM.
Next, `C[C@@H](NC(=O)c1ccc2c(-c3ccccc3Cl)nn(-c3ccc(F)cc3)c2c1)[C@H](O)c1ccccc1` [Example 107, 3-(2-chlorophenyl)-1-(4-fluorophenyl)-N-[(1R,2R)-2-hydroxy-1-methyl-2-phenylethyl]-1H-indazole-6-carboxamide]: 305 nM; `O=C(NC1(c2ccc(Br)cc2)CC(O)C1)c1ccc2c(-c3ccccc3Cl)nn(-c3ccc(F)cc3)c2c1` (stereo not drawn) [Example 108, N-[1-(4-bromophenyl)-3-hydroxycyclobutyl]-3-(2-chlorophenyl)-1-(4-fluorophenyl)-1H-indazole-6-carboxamide]: 393 nM.
On to `O=C(N[C@H](CO)Cc1ccccc1)c1ccc2c(-c3ccccc3Cl)nn(-c3ccc(F)cc3)c2c1` [Example 110, N-[(1S)-1-benzyl-2-hydroxyethyl]-3-(2-chlorophenyl)-1-(4-fluorophenyl)-1H-indazole-6-carboxamide], for which 134 nM corresponded to half-maximal inhibition (IC50).
The value for `CO[C@@H]1C[C@H](NC(=O)c2ccc3c(-c4ccccc4Cl)nn(-c4ccc(F)cc4)c3c2)[C@H](O)[C@H](C)O1` [Example 111, 3-(2-chlorophenyl)-1-(4-fluorophenyl)-N-((2S,3S,4S,6S)-3-hydroxy-6-methoxy-2-methyltetrahydro-2H-pyran-4-yl)-1H-indazole-6-carboxamide] was 194 nM; that for `O=C(NCC1(O)CC1)c1ccc2c(-c3ccccc3Cl)nn(-c3ccc(F)cc3)c2c1` [Example 114, 3-(2-chlorophenyl)-1-(4-fluorophenyl)-N-[(1-hydroxycyclopropyl)methyl]-1H-indazole-6-carboxamide] was 627 nM.
`O=C(N[C@@H]1CCC[C@@H]1O)c1ccc2c(-c3ccccc3Cl)nn(-c3ccc(F)cc3)c2c1` [Example 115, 3-(2-chlorophenyl)-1-(4-fluorophenyl)-N-[(1R,2S)-2-hydroxycyclopentyl]-1H-indazole-6-carboxamide] displayed an IC50 of 578 nM. This IC50 and that of the compound before are within 1.5-fold of each other.
The compound `N#Cc1cccc(-c2nn(-c3ccc(F)cc3)c3cc(C(=O)NC4CCS(=O)(=O)C4)ccc23)c1` (stereo not drawn) [Example 116, 3-(3-cyanophenyl)-N-(1,1-dioxidotetrahydrothiophen-3-yl)-1-(4-fluorophenyl)-1H-indazole-6-carboxamide] showed an IC50 of 359 nM. Compared with the last compound, the IC50 is about 1.6-fold lower.
`CC1(NC(=O)c2ccc3c(-c4cccc(C#N)c4)nn(-c4ccc(F)cc4)c3c2)CCS(=O)(=O)C1` (stereo not drawn) [Example 117, 3-(3-cyanophenyl)-1-(4-fluorophenyl)-N-(3-methyl-1,1-dioxidotetrahydrothiophen-3-yl)-1H-indazole-6-carboxamide] displayed an IC50 of 7 nM.
Take `N#Cc1ccc(Cl)c(-c2nn(-c3ccc(F)cc3)c3cc(C(=O)NC4(CO)CCC4)ccc23)c1` [Example 118, 3-(2-chloro-5-cyanophenyl)-1-(4-fluorophenyl)-N-[1-(hydroxymethyl)cyclobutyl]-1H-indazole-6-carboxamide]: half-maximal inhibition (IC50) required 5.5 nM.
In turn, `CC(C)[C@@H](CO)NC(=O)c1ccc2c(-c3cc(C#N)ccc3Cl)nn(-c3ccc(F)cc3)c2c1` [Example 123, 3-(2-chloro-5-cyanophenyl)-1-(4-fluorophenyl)-N-[(1S)-1-(hydroxymethyl)-2-methylpropyl]-1H-indazole-6-carboxamide] had an IC50 of 3.8 nM.
In turn, `CC(C)[C@@H](CO)NC(=O)c1ccc2c(-c3cccc(C4CC4)c3)nn(-c3ccc(F)cn3)c2c1` [Example 124, 3-(3-cyclopropylphenyl)-1-(5-fluoropyridin-2-yl)-N-[(1S)-1-(hydroxymethyl)-2-methylpropyl]-1H-indazole-6-carboxamide] had an IC50 of 4.4 nM.
Compound `O=C(NC1CCS(=O)(=O)C1)c1ccc2c(-c3ccccc3Cl)nn(Cc3ccc(Cl)cc3)c2c1` (stereo not drawn) [Example 168, 1-(4-chlorobenzyl)-3-(2-chlorophenyl)-N-(1,1-dioxidotetrahydrothiophen-3-yl)-1H-indazole-6-carboxamide] displayed an IC50 of 455 nM.
Next, `CC(C)n1nc(-c2ccccc2Cl)c2ccc(C(=O)NC3CCS(=O)(=O)C3)cc21` (stereo not drawn) [Example 169, 3-(2-chlorophenyl)-N-(1,1-dioxidotetrahydrothiophen-3-yl)-1-(1-methylethyl)-1H-indazole-6-carboxamide]: 364 nM; `O=C(NC1CCS(=O)(=O)C1)c1ccc2c(-c3ccccc3Cl)nn(Cc3ccc(F)cc3)c2c1` (stereo not drawn) [Example 170, 3-(2-chlorophenyl)-N-(1,1-dioxidotetrahydrothiophen-3-yl)-1-(4-fluorobenzyl)-1H-indazole-6-carboxamide]: 179 nM.
Turning to `CC1(NC(=O)c2ccc3c(-c4ccccc4Cl)nn(-c4cscn4)c3c2)CCS(=O)(=O)C1` (stereo not drawn) [Example 179, 3-(2-Chlorophenyl)-N-(3-methyl-1,1-dioxidotetrahydrothiophen-3-yl)-1-(thiazol-4-yl)-1H-indazole-6-carboxamide], the half-maximal inhibitory concentration (IC50) was 285 nM.
The compound `CC1(NC(=O)c2ccc3c(-c4ccccc4Cl)nn(C4CCCCO4)c3c2)CCS(=O)(=O)C1` (stereo not drawn) [Example 191, 3-(2-Chlorophenyl)-N-(3-methyl-1,1-dioxidotetrahydrothiophen-3-yl)-1-(tetrahydro-2H-pyran-2-yl)-1H-indazole-6-carboxamide] gave an IC50 of 182 nM.
